# Laboratory results reported in publication PMC2364625, “Characterization and site-directed mutagenesis of Wzb, an O-phosphatase from Lactobacillus rhamnosus” (BMC Biochemistry, 2008).
# Legend:
# Wzb [1] = target: T1, Wzb (Lacticaseibacillus rhamnosus, UniProt Q58Z13); assay: pNPP hydrolysis, absorbance at […] nm; format: biochemical; conditions: inhibitor; increasing inhibition from 1 mM to 100 mM, no residual activity at 100 mM (data not shown); substrate pNPP
# T1 construct: 6His-tagged fusion, pQE30 (pGL387, wzb ORF in SacI-KpnI), E. coli NM522, purified under urea and renatured on Ni-NTA, 27 kDa; tag not reported as cut; forward primer starts at codon 2 (Ile)
# T1 sequence (Q58Z13 2-254): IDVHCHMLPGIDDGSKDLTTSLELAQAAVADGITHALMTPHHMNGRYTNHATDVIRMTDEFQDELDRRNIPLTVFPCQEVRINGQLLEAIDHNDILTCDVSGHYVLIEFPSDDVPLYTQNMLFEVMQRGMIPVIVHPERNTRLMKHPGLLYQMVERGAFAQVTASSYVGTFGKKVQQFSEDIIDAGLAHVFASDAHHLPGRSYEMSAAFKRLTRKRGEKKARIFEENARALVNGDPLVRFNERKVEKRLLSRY
# Wzb [2] = target: T1, Wzb; assay: pNPP hydrolysis, absorbance at […] nm; format: biochemical; conditions: 2.5 mM pNPP; MES-HEPES, 1% BSA; Cu2+ essential, Co2+ stimulates; optimum pH 7.3, 75 °C
SMILES,inhibition (Wzb [1]),"pNPP hydrolysis, absorbance at 405 nm (Wzb [2])"
[O]=[V]([OH])([OH])[OH] [sodium orthovanadate],Wzb activity on pNPP was inhibited by sodium orthovanadate (Na3VO4),–
O=[N+]([O-])c1ccc(OP(=O)(O)O)cc1 [p-nitrophenyl-phosphate],–,The purified Wzb fusion protein was active on p-nitrophenyl-phosphate (pNPP)
